In US20240389885A1, “DAILY FASTING METHANE TO DETECT INTESTINAL METHANOGEN OVERGROWTH AND MONITOR TREATMENT RESPONSE” (Cedars-Sinai Medical Center, priority 2021, published 2024):

What was measured:
[1] = tested on: canine small bowel transit; conditions: infusion of CH4, canine; cited from earlier work
[2] = tested on: subjects with IBS-C and IMO; test: EASE-DO randomized double-blind placebo-controlled trial (NCT03763175); type: in vivo, human; conditions: 14-week trial, adult patients with IBS-C and IMO, single daily oral doses vs placebo
From the text: To evaluate the accuracy and temporal stability of SMM, and to assess its correlation with stool M. smithii loads, we analyzed data from a randomized double-blind placebo-controlled trial: Efficacy and Safety of Single, Daily Oral Doses of SYN-010 Compared to Placebo in Adult Patients with IBS-C (EASE-DO, NCT03763175).
Trial details: Efficacy and Safety of Single, Daily Oral Doses of SYN-010 Compared to Placebo in Adult Patients with IBS-C (EASE-DO, NCT03763175) was a 14-week single-center randomized double-blind placebo-controlled trial evaluating the effects of lovastatin lactone on subjects with IBS-C and IMO. Subjects were excluded if they were on statins, fibrates, niacin, narcotics, laxatives, tegaserod, lubiprostone, linaclotide, metoclopramide, prucalopride, domperidone, plecanatide, CandiBactin, Atrantil, Allimax/Allimed, antibiotics within 2 months and opioids within 3 months prior to the study. If subjects were on probiotics or fiber supplements, they were asked to not change their dose. […] All subjects enrolled in this study completed a 2-hour breath test at their initial visit and their weekly complete spontaneous bowel movement (CSBM) and spontaneous bowel movement (SBM) were recorded. After recording their baseline CSBM and SBM for 2 weeks, subjects returned to the lab and their SMM and stool samples were collected (FIG. 1). […]

In the case of `C` [CH4, methane], the “effect on small bowel transit” value [1] is listed as “slows canine small bowel transit”.
In the case of `CC[C@H](C)C(=O)O[C@H]1C[C@@H](C)C=C2C=C[C@H](C)[C@H](CC[C@@H]3C[C@@H](O)CC(=O)O3)[C@H]21` [SYN-010, lovastatin lactone], the “primary endpoint, interim futility analysis” value [2] is reported as “not meeting the primary endpoint”.
